From patent US11135185B2, “Uses of curcumin derivative” (Merry Life Biomedical Company, Ltd., priority 2018, dated 2021)
“Also recorded” adds a separate entry of the source.

Experiments:
soluble Aβ = conditions: AD transgenic mouse, within hours, ApoE-dependent; cited from earlier work
APP = experiment: Western blotting of APP in Huh-7 cells; type: cell-based, human; conditions: 24 h treatment, Western blotting (FIG. 1)
Description: The human hepatoma Huh-7 cell lines were obtained from the Health Science Research Resources Bank (JCRB0403; Osaka, Japan) and were cultured in Dulbecco's modified Eagle's medium (DMEM, Gibco) supplemented with 100 U/ml penicillin, 100 mg/ml streptomycin and 10% fetal bovine serum (FBS, Biological industry). Cells were cultured at 37° C. in a humidified atmosphere of 5% CO2 incubator (Forma Scientific, Marietta, Ohio, USA). The cells were seeded in 24-well, 6 or 10 cm dishes overnight the day before the experiment.
After cells were seeded and treated with curcumin and its derivatives for 24h, cells were washed with ice-cold PBS and lysed with 100 μL of RIPA lysis buffer (Pierce Biotechnology, Rockford, Ill., USA) supplemented with protease and phosphatase inhibitors (Roche Diagnostics, Mannheim, Germany). Cell lysates were further cleaned by centrifugation at 14000 rpm 4° C. for 15 min. Protein concentration was determined using a Bradford assay (Bio-Rad, Hercules, Calif., USA). For western blot analysis, 20 μg of each sample was prepared for SDS-PAGE and denatured at 95° C. for 10 min. The prepared samples from total lysates were loaded and separated by SDS-PAGE (8% or 10%), and then transferred to PVDF membranes (pore size 0.45 μm; PerkinElmer) by semi-dry transfer cell (Bio-Rad). […]

phospho-NF-κB = experiment: Western blotting of phospho-NF-κB in Huh-7 cells; type: cell-based, human; conditions: 24 h treatment, Western blotting (FIG. 1)
Description: (§1) The human hepatoma Huh-7 cell lines were obtained from the Health Science Research Resources Bank (JCRB0403; Osaka, Japan) and were cultured in Dulbecco's modified Eagle's medium (DMEM, Gibco) supplemented with 100 U/ml penicillin, […] streptomycin and 10% fetal bovine serum (FBS, Biological industry). Cells were cultured at 37° C. in a humidified atmosphere of 5% CO2 incubator (Forma Scientific, Marietta, Ohio, USA). The cells were seeded in 24-well, 6 or 10 cm dishes overnight the day before the experiment. On the next day, the cells were treated with curcumin (Sigma) and TML-6. The stock concentration was prepared at 5 mg/mL (for curcumin) and 10 mM (for TML-6).
(§2) After cells were seeded and treated with curcumin and its derivatives for 24h, cells were washed with ice-cold PBS and lysed with 100 μL of RIPA lysis buffer (Pierce Biotechnology, Rockford, Ill., USA) supplemented with protease and phosphatase inhibitors (Roche Diagnostics, Mannheim, Germany). Cell lysates were further cleaned by centrifugation at 14000 rpm 4° C. for 15 min. Protein concentration was determined using a Bradford assay (Bio-Rad, Hercules, Calif., USA). For western blot analysis, 20 μg of each sample was prepared for SDS-PAGE and denatured at 95° C. for 10 min. […]

ApoE = experiment: Western blotting of ApoE in Huh-7 cells; type: cell-based, human; conditions: 24 h treatment, Western blotting (FIG. 1)
Description: as §1, §2

[1] = tested on: Aβ production in N2a/APPswe cells; experiment: Amyloid β ELISA of culture medium of N2a/APPswe stable cell line; type: cell-based; conditions: 24 h incubation, ELISA (FIG. 2)
Description: Extracellular levels of soluble Aβ40 and Aβ42 were determined by LEGEND MAX™ 3-Amyloid x-40 and X-42 ELISA Kit (Biolegend). N2A neuroblastoma cell line with stably over expressing APP Swedish mutation (APPswe) was designed as N2A/APPswe cell line (kindly grafted from Prof. Kuo, Yu-Min's Lab). 8×10^5 N2A/APPswe cells were seeded on a 6-cm dish. After overnight incubation, the cells were treated with curcumin or TML-6 for 24 h. The culture supernatant was collected and centrifuged at 1,500×g at 4° C. for 5 min to remove cells. The Aβ levels of the culture supernatants of various treatments were assayed according to the manufacture's instrumentations. The samples were detected at OD620 and the calculation of Aβ levels was based on the standard curves of Aβ40 and Aβ42, respectively.

ApoE promoter = ApoE promoter luciferase reporter assay in Huh-7 cells; type: cell-based, human; conditions: for luciferase activity of ApoE promoter: Huh-7, serial truncations of ApoE promoter from -1061/+45 to -154/+45, 24 h (FIG. 3C)
Source text: The promoter region of human APOE gene has been identified and published [[…]]. We constructed ApoE promoter region from -1061 +45 in two-steps. The first fragment was amplified using polymerase chain reaction (PCR) by forward primer APOE-[…] ID NO: 1) paired with reverse primer APOE-R-BglII: [NT] ID NO: 2) and was ligated to the pGL3 basic vector (Promega, Madison, Wis., USA) by using Kpn I and Bgl II restriction sites. The second fragment was amplified using PCR by forward primer APOE-F-BglII: [NT] ID NO: 3) paired with reverse primer APOE-[…] ID NO: 4) and was ligated to the pGL3-basic (Promega) by using Bgl II and Hind III restriction sites. The serial deletion mutants of ApoE promoter, -705/+45, -456/+45, -344/+45, -247/+45, -154/+45 and -32/+45 were amplified using PCR and based on the full-length ApoE promoter (-1061/+45). The generated fragments were digested by Kpn I and Xba I and then inserted into the pGL3-basic vector (Promega). To generate the deletion mutants of ApoE promoter, primers were used to amplify the promoter for different lengths. The forward primers were APOE-705-[…] ID NO: 5), APOE-456-[…] ID NO: 6), APOE-344-[…] ID NO: 7), APOE-247-[…] ID NO: 8), APOE-154-[…] ID NO: 9), and APOE-32-[…] ID NO: 10) which were paired with reverse primer APOE-[…] ID NO: 4) to amplify the target region of the promoter. For disrupting the binding sites of PPAR and/or AP-2 on ApoE promoter, we conducted the point mutation method and the primers paired used were as follows: -154[…] ID NO: 11) paired with -154[…] ID NO: 12), -154[…] ID NO: 13) paired with -154[…] ID NO: 14), -154[…] ID NO: 15) paired with -154[…] ID NO: 16), -154[…] ID NO: 17) paired with -154[…] ID NO: 18). The pGL3-154/+45-ApoE-Luc was used as the template for PCR reaction to amplify the mutant of PPAR or AP-2 binding sites in the ApoE promoter. The PCR products were digested by Dpn I and transformed into TOP10 competent cells (Invitrogen, Carlsbad, Calif., USA). After LB plating and extraction of plasmids, positive colonies were confirmed by restriction enzyme digestion. All of the promoter constructs were verified by sequencing. The Huh-7 cells were seeded in 24-well culture plates and then co-transfected with serial deletion of pGL3-ApoE-Luc (firefly luciferase) with pRL-TK renilla luciferase reporter. Following overnight incubation, the transfected cells were treated with traditional curcumin, and TML-6 for an additional 24h. […] The relative luciferase units (RLU) were measured using a luminometer (GLOMAX Multi, Promega). […] The RLUs are expressed as means plus standard deviation of three independent experiments.

[2] = tested on: Aβ levels in the brain of 3×Tg AD transgenic mice; experiment: Aβ immunofluorescence staining of brain sections of 3×Tg-AD transgenic mice; type: in vivo; conditions: six-month-old 3×Tg AD mice fed 150 mg/kg for four months, immunofluorescence (FIG. 4)
Source text: (§3) Triple-transgenic mice as a model of Alzheimer's disease (3×Tg-AD, APP Swedish, MAPT P301L, and PSEN1 M146V) were bred at the laboratory animal center of National Cheng Kung University (NCKU) [Oddo S, Caccamo A, Shepherd J D, Murphy M P, Golde T E, Kayed R, Metherate R, Mattson M P, Akbari Y, LaFerla F M: Triple-transgenic model of Alzheimer's disease with plaques and tangles: intracellular Abeta and synaptic dysfunction. Neuron 2003, 39(3):409-421]. Experimental procedures for handling the mice were in accordance with the guidelines of the Institutional Animal Care and Use Committee (IACUC) of NCKU. The mice were housed in a room maintained on a 12-h light-dark cycle and fed ad libitum. […] These mice developed plaque and tangle pathology. Aβ deposition as progressive deposition appeared as early as six months.
(§4) Mice were anesthetized and euthanized with 10% chloral hydrate (400 mg/kg, i.p.) and then transcardial perfusion was performed with 0.01 M PBS (pH 7.4). The brains were post-fixed in 4% PFA for 2 days and dehydrated with 30% sucrose at 4° C. The hydrated brain was embedded with optimal cutting temperature compound (OCT, Leica) and quick-frozen at −30° C. The blocks were sectioned at 16 um-thick. Slices were stored at −20° C. […] The images were captured by TissureFAXS microscopy system and positive signals were quantified by TissueQuest software module (TissueGnostic, Vienne, Austria).

[3] = tested on: Iba-1 (microglial activation biomarker) in 3×Tg AD transgenic mice; experiment: Iba-1 immunofluorescence staining in 3×Tg-AD transgenic mice; type: in vivo; conditions: six-month-old 3×Tg AD mice fed 150 mg/kg for four months, compared to curcumin (FIG. 5)
Source text: as §3, §4

SMILES | clearance of soluble Aβ (soluble Aβ) | protein expression level of APP (APP) | protein expression level of phospho-NF-κB (phospho-NF-κB) | protein expression level of Apo E (ApoE) | Aβ42/40 ratio [1] | production of Aβ40 [1] | production of Aβ42 [1] | ApoE promoter activity after disruption of proximal PPARα/RXRα and AP2 binding sites (ApoE promoter; Huh-7, -154/+45 mutants MdelAP2 and MdelPPAR, 24 h (FIG. 3E)) | luciferase activity of ApoE promoter (ApoE promoter) | promoter activity of ApoE-154MdelAP2/+45 mutant compared with wild-type -154/+45 (ApoE promoter; Huh-7, siRNA knockdown experiment, 24 h (FIG. 3F)) | Aβ levels in the brain [2] | expression of Iba-1 (brain inflammation) [3]
C=C(c1ccc(C(=O)O)cc1)c1cc2c(cc1C)C(C)(C)CCC2(C)C [bexarotene] | enhanced clearance | – | – | – | – | – | – | – | – | – | – | –
CCN(CC)C(=O)CC(C)(C(=O)/C=C/c1ccc(OC)c(OC)c1)C(=O)/C=C/c1ccc(OC)c(OC)c1 [TML-6] | – | decreased in a dose-dependent manner | decreased in a dose-dependent manner | significantly increased | significantly suppresses | significantly suppresses | significantly suppresses | significantly suppressed | gradually increases | suppressed | significantly better activity than curcumin; also recorded: significantly decrease | significantly better activity than curcumin; also recorded: significantly inhibited
COc1cc(/C=C/C(=O)CC(=O)/C=C/c2ccc(O)c(OC)c2)ccc1O [curcumin, diferuloyl methane] | – | inhibit the APP synthesis | inhibit NFκB | upregulate ApoE | – | – | – | – | gradually increases | – | – | –
